# Entries after “also recorded” stand apart in the source; their conditions may differ. Where two headings read alike, the source gives them in different places.
# Columns and labels:
# [1] = test system: SW620 colon carcinoma cells; assay: Cell morphology change of SW620 cells (phase contrast microscopy); format: cell-based, human; settings: for Cell morphology change: SW620 cells, 0.5 μM
# Protocol: (§1) Chemotherapeutic molecules, such as DNA alkylators, topoisomerase inhibitors or histone deacetylase inhibitors, alter the morphology and growth characteristics of cancer cells in culture. […] Cells were transfected with 25-100 nM siRNA using the Silencer™ siRNA Transfection Kit (Ambion, Inc.). Cell growth and morphology change were evaluated 72 or 96 hr after transfection by counting cells in a hemocytometer, and by visually inspecting cells in a phase contrast microscope.
# [2] = test system: SW620 colon carcinoma cells; assay: Growth arrest / cell counts of SW620 cells; format: cell-based, human; settings: for Growth arrest: SW620 cells, based on cell counts, 0.5 μM
# Protocol: as §1
# SW620 cells [3] = assay: Affymetrix U133A microarray analysis of genomic transcription; format: cell-based, human; settings: 0.5 μM, 72 hr
# Protocol: Total RNA from SW620 cells from four pooled culture wells from triplicate experiments was isolated using a Qiagen RNeasy™ Midi kit according to the manufacturer's instructions. […]. Microarray experiments were performed at the DNA Array Core Facility of The Scripps Research Institute using Affymetrix Genechip® Human Genome U133A chips. Data were analyzed using Affymetrix MicroArray® Suite (MAS 5.0) software. RMA values for probe sets were analyzed using Significance Analysis of Microarrays (SAM) 1.21 software (Stanford University).
# The effects of polyamide treatment on genomic transcription were monitored by DNA microarray analysis using Affymetrix high-density U133A arrays, which contain oligonucleotides representing approximately 18,000 human genes. […]. Total RNA was isolated, converted into fluorescent cRNA and hybridized to the oligonucleotide microarrays. […]
# SW620 cells [4] = format: cell-based, human; settings: SW620 cells pre-treated, grown without polyamide up to two weeks
# Protocol: Soft agar assays were performed in 6-well culture dishes using SeaPlaque low-melting temperature agarose (Cambrex Bio Science Rocklarid, Inc.). The cell growth medium was supplemented with 20% fetal bovine serum. Cells were treated for 5 days with or without polyamide, harvested by trypsin treatment, and counted using a hemocytometer. […] Cells were gently mixed by pipetting and quickly transferred to the culture dish containing a thin layer (0.5 ml) of solidified 0.5% agarose in medium. Cultures were incubated for 1-2 weeks prior to visualization by microscopy.
# Equal numbers of untreated and polyamide-treated cells were inoculated into soft agar (without polyamide), and grown for up to two weeks.
# [5] = test system: SW620 colon carcinoma cells
# [6] = test system: human histone H4c gene (radiolabeled PCR product); format: biochemical
# K562 [7] = assay: Growth inhibition; format: cell-based, human
# K562 [8] = assay: G2/M cell cycle arrest by FACS analysis; format: cell-based, human
# H4c mRNA in K562 = format: cell-based, human
# Protocol: (§2) Quantitative real-time RT-PCR was performed using QuantiTect™ SYBR® Green RT-PCR (Qiagen) as described. […] Temperature cycling and detection of the SYBR® Green emission was performed with a Cepheid SmartCycler® system. Statistical analysis was performed on three independent quantitative RT-PCR experiments for each RNA sample.
# [9] = test system: histone H4c mRNA in SW620 cells; assay: Real-time quantitative RT-PCR of H4c mRNA; format: cell-based, human
# Protocol: as §2
# v-Myb = assay: qRT-PCR of v-Myb expression; format: cell-based
# SW620 cells [10] = assay: Nuclear structure, Hoechst staining and fluorescence microscopy; settings: polyamide 0.5 μM for 72 hours or siRNA transfection
# [11] = SW620, 25-100 nM siRNA, 72 or 96 hr
compound,measurement,setting,value
"O=C(O)CCCc1ccc(N(CCCl)CCCl)cc1 [Chl, chlorambucil, reference compound]",Cell morphology change,[1],without effect
same,Growth arrest,[2],without effect
same,genes whose transcription was affected,SW620 cells [3],a large number of genes
same,growth in soft agar,SW620 cells [4],formed colonies
same,cytotoxicity,[5]; concentrations higher than 0.5 μM,cytotoxic at higher concentrations
"CN(C)CCCNC(=O)CCNC(=O)c1cc(NC(=O)c2cc(NC(=O)c3cc(NC(=O)c4nc(NC(=O)C(CCNC(=O)c5cc(NC(=O)c6cc(NC(=O)c7nc(NC(=O)c8nccn8C)cn7C)cn6C)cn5C)NC(=O)CCCc5ccc(N(CCCl)CCCl)cc5)cn4C)cn3C)cn2C)cn1C (stereo not drawn) [ImImPyPy-(R-2,4-Daba^Chl)-ImPyPyPy-β-Dp]",alkylation of the H4c gene in vitro,[6]; sites of the form 5′-WGGWCN-3′,alkylate multiple sites in the H4c gene
same,Growth arrest,K562 [7],causes growth and cell cycle arrest
same,cell cycle arrest,K562 [8],causes growth and cell cycle arrest
same,effect on H4c gene transcription,H4c mRNA in K562,down regulates H4c gene transcription
CN(C)CCCNC(=O)CCNC(=O)c1cc(NC(=O)c2cc(NC(=O)c3cc(NC(=O)c4cc(NC(=O)[C@@H](CCNC(=O)c5cc(NC(=O)c6nc(NC(=O)c7cc(NC(=O)c8nccn8C)cn7C)cn6C)cn5C)NC(=O)CCCc5ccc(N(CCCl)CCCl)cc5)cn4C)cn3C)cn2C)cn1C [5-Chl],Growth arrest,[2],cytotoxic
same,alkylation of the H4c PCR product on either strand,[6],fail to significantly alkylate
same,cytotoxicity,[5],highly cytotoxic
CN(C)CCCNC(=O)CCNC(=O)c1cc(NC(=O)c2cc(NC(=O)c3cc(NC(=O)c4cc(NC(=O)[C@@H](CCNC(=O)c5nc(NC(=O)c6nc(NC(=O)c7cc(NC(=O)c8nccn8C)cn7C)cn6C)cn5C)NC(=O)CCCc5ccc(N(CCCl)CCCl)cc5)cn4C)cn3C)cn2C)cn1C [6-Chl],Cell morphology change,[1],abolished the morphological change and growth arrest and no
same,Growth arrest,[2],abolished the morphological change and growth arrest; also recorded: slight
5′-GGGCAUUACAAAACCGGCUtt-3′ [HIST1H4C-1],cell morphology change after siRNA transfection,[1]; [11],caused a morphological change
same,cell number / growth after siRNA transfection,[2]; [11],decreased
same,reduction in cell number relative to untreated cells,"[2]; SW620, after 3 days",73 (+1-5) %
same,Relative cell number,"[2]; SW620, siRNA transfection, untreated = 100%",37%
same,down regulation of H4c mRNA compared to scrambled sequence siRNA,"[9]; SW620, quantitative RT-PCR",~8.6 fold
same,down regulation of H4c transcription sufficient to cause growth arrest,[9]; SW620 cells,2 fold
same,effect on v-Myb transcription / expression,v-Myb,down regulated v-Myb transcription
same,effect on size of the cell nucleus,SW620 cells [10],caused a similar enlargement of the cell nucleus
Cc1cc(C)n2c1C=C1C=CC(CCCCC(=O)N[C@@H](CCNC(=O)c3nc(NC(=O)CCNC(=O)c4nc(NC(=O)c5nccn5C)cn4C)cn3C)C(=O)Nc3cc(C(=O)Nc4cc(C(=O)Nc5cc(C(=O)Nc6cc(C(=O)NCCC(=O)NCCCN(C)C)n(C)c6)n(C)c5)n(C)c4)n(C)c3)=[N+]1[B-]2(F)F [1S-bodipy],entry into the nucleus,SW620 cell line,entered the nucleus
CN(C)CCCNC(=O)CCNC(=O)c1cc(NC(=O)c2cc(NC(=O)c3cc(NC(=O)c4cc(NC(=O)[C@@H](CCNC(=O)c5cc(NC(=O)c6cc(NC(=O)c7cc(NC(=O)c8nccn8C)cn7C)cn6C)cn5C)NC(=O)CCCc5ccc(N(CCCl)CCCl)cc5)cn4C)cn3C)cn2C)cn1C [4-Chl],Growth arrest,[2],cytotoxic
same,alkylation of the H4c PCR product on either strand,[6],fail to significantly alkylate
same,cytotoxicity,[5],highly cytotoxic
"CN(C)CCCNC(=O)CCNC(=O)c1cc(NC(=O)c2nc(NC(=O)CCNC(=O)c3cc(NC(=O)c4cc(NC(=O)[C@@H](CCNC(=O)c5cc(NC(=O)c6nc(NC(=O)CCNC(=O)c7cc(NC(=O)c8nccn8C)cn7C)cn6C)cn5C)NC(=O)CCCc5ccc(N(CCCl)CCCl)cc5)cn4C)cn3C)cn2C)cn1C [2-Chl, ImPy-βImPy-(R-2,4-Daba^Chl)-PyPyβImPy-βDp]",Cell morphology change,[1],no
same,Growth arrest,[2],no
Cc1cc(C)n2c1C=C1C=CC(CCCCC(=O)N[C@H](CCNC(=O)c3nc(NC(=O)CCNC(=O)c4nc(NC(=O)c5nccn5C)cn4C)cn3C)C(=O)Nc3cc(C(=O)Nc4cc(C(=O)Nc5cc(C(=O)Nc6cc(C(=O)NCCC(=O)NCCCN(C)C)n(C)c6)n(C)c5)n(C)c4)n(C)c3)=[N+]1[B-]2(F)F [1R-bobipy],entry into the nucleus,SW620 cell line,entered the nucleus
